Experimental data published in patent US20050158435A1, “Process for producing sdg and foods and drinks containing the same” (Suntory Limited, priority 2002, published 2005).

What was measured:
Format in all cases: in vivo, rat
ovariectomized rats [1] = assay: Antiobesity effect: body weight changes in ovariectomized rats; conditions: forced oral administration once a day for 14 days after ovariectomy (FIG. 2)
Excerpt: Female Wister-strain rats at 7 weeks of age were ovariectomized and treated with each sample once a day by forced oral administration using a metal gastric tube for 14 days after surgery. Each group consisted of 8 animals (n=8). The animals were weighed to evaluate the effect on obesity due to increased appetite after the menopause. The samples used were 17β estradiol as a positive control and genistein as a reference sample, which is a major compound of soybean isoflavone. The SDG sample was composition 4.

ovariectomized rats [2] = assay: Bone mass (femoral dry weight) in ovariectomized rats; conditions: 4 weeks
Excerpt: (§1) It is known that after the menopause bone mass decreases through the activation of osteoclasts due to estrogen decline and causes osteoporotic symptoms. Estrogen decline may disturb the balance of lipid metabolism to cause symptoms such as hyperlipidemia and hypercholesterolemia. Ovariectomized female rats are commonly used as model animals of menopausal symptoms because ovariectomy induces the above symptoms due to the decline of estrogen levels. […] Wistar-strain female rats (Charles River Japan, Inc.) were used, among which 34 animals were ovariectomized (OVX) at 6 weeks of age and 9 animals were sham-operated (Sham) at the same age, and raised on not-purified chow (CE 2; Clea Japan). After 2 weeks, the ovariectomized rats were divided into 4 groups (n=8-9) called groups I to IV. The sham-operated non-ovariectomized group (group V, n=9) was used as a positive control. Group I and group V were free access for 4 weeks to a basic diet consisting of AIN-93M Mix purified diet without Ca (Oriental Yeast Co., Ltd.). […] On the end date of raising the rats, they were weighed and then anatomized to collect blood and dissect the right femur. After adherent tissues were removed, the femur dissected from the rat's right leg was dried at 100° C. for 24 hours and weighed.

ovariectomized rats [3] = assay: Blood triglyceride levels in ovariectomized rats; conditions: 0.1% in diet, 4 weeks
Excerpt: as §1, with “Evaluation of lipid metabolism-improving effect: Plasma was isolated” for “After adherent tissues were removed, the femur dissected”, “rat blood and assayed” for “the rat's right leg was dried at 100° C.”, “triglyceride by an automatic analyzer (Hitachi).” for “24 hours and weighed.”

ovariectomized rats [4] = assay: Uterine weight in ovariectomized rats
Excerpt: (§2) Wistar-strain female rats (Charles River Japan, Inc.) were used, among which 41 animals were ovariectomized at 6 weeks of age and 9 animals were sham-operated at the same age, and raised on not-purified chow (CE 2; Clea Japan). After a week, the ovariectomized rats were divided into […]. The sham-operated non-ovariectomized group […] was used as a positive control.
(§3) Group I and group V and non-ovariectomized group had free access for 4 weeks to a basic diet consisting of AIN-93M Mix purified diet without Ca (Oriental Yeast Co., Ltd.). Group II, group III and group IV were fed with the basic diet supplemented with 0.1% each of soybean isoflavone, SDG (composition 4), and a combination of soybean isoflavone and SDG, respectively. Group V was treated with 17β estradiol at 1 μg/day by subcutaneous administration through the period of ingesting the test diet. During the raising period, the temperature at the tail skin of the rat was measured with a precision thermometer BAT-12R (Physitemp).
At the end of the studies in Example 7, the rats were autopsied and measured for uterine weight.

ovariectomized rats [5] = assay: Hot flashes model: temperature at the tail skin of ovariectomized rats; conditions: 0.1% in diet, 4 weeks (FIG. 3)
Description: A sharp decline of estrogen levels after the menopause invites hormone imbalance and autonomic failure to cause vasomotor disturbance-like symptoms such as hot flashes. In experimental animals, ovariectomy of female rats induces a rise in the temperature at the tail skin and symptoms corresponding to hot flashes among menopausal symptoms. The temperature at the tail skin was measured in ovariectomized rats treated with SDG and soybean isoflavone.
as §2
as §3, with “Group V was treated with 17β estradiol at 1 μg/day by subcutaneous administration through the period of ingesting the test diet.” left out

Compound: O=c1c(-c2ccc(O)cc2)coc2cc(O)cc(O)c12 [genistein]
- Body weight gain (ovariectomized rats [1]; 100 mg/Kg): body weight gain was inhibited

Compound: secoisolariciresinol diglycoside [composition 4]
- Femoral dry weight (per 100 g body weight) (ovariectomized rats [2]; ovariectomized Wistar female rats, basic diet supplemented with 0.1% of sample): 90.9 ± 2.7 mg
- Inhibition of bone mass decline vs group I (ovariectomized control) (ovariectomized rats [2]; ovariectomized rats, 0.1% in diet): tendency of inhibiting bone mass decline
- Inhibition of triglyceride increase vs group I (ovariectomized rats [3]): significant inhibitory effect
- Blood triglyceride (ovariectomized rats [3]; plasma, *p<0.05, ** vs. group I): 32.0 ± 3.2* mg/dl
- Uterine weight (ovariectomized rats [4]; 0.1% in diet, 4 weeks): 105.5 ± 6.8 mg
- Rise in the temperature at the tail skin (ovariectomized rats [5]): the rise was inhibited
- Body weight gain (ovariectomized rats [1]; 50 mg/Kg): body weight gain was inhibited

Compound: C[C@]12CC[C@@H]3c4ccc(O)cc4CC[C@H]3[C@@H]1CC[C@@H]2O [17β estradiol]
- Uterine weight (ovariectomized rats [4]; 1 μg/day subcutaneous administration, ***P < 0.001 vs. group I): 443.9 ± 28.8*** mg
- Uterine atrophy (ovariectomized rats [4]; autopsy at the end of Example 7): did not show uterine atrophy
- Body weight gain (ovariectomized rats [1]; 0.02 mg/kg): body weight gain was inhibited
